Experimental data: patent US9079915B2, “Thienyl- and furanyl-isoquinolinones and methods for using them” (priority 2008, dated 2015)

Experiments:
Type in all cases: in vivo
Wistar rats, pMCAO = test: Less severe permanent MCAO (pMCAO, distal MCA occlusion) model; details: pMCAO rat
Method: Adult male Wistar rats (Charles River, Wilmington, Mass.) 290-310 g were used in all studies. Animal procedures were approved by the Institutional Animal Care and Use Committee and conducted in accordance with the guidelines of the National Institutes of Health. Craniotomy was performed under isoflurane anesthesia. This was followed by electrocauterization of the distal portion of the MCA and a 90 minute ligation of both carotid arteries to limit collateral circulation during the initial stage of stroke, as described by Chen, et al. (Chen et al., 1986). Compound or vehicle, were administered as infusion starting at 4 hours post-induction of stroke and lasting 24 hours. Animals were maintained for long-term functional recovery assessment. Sensorimotor and reflex deficits were evaluated at 3-day intervals for 90 days according to (Bederson et al., 1986; De Ryck et al., 1989). Each trial included: postural test, two visual and two tactile forelimb placement tests and a hind limb placement test. Performance at each test was scored from 0 (no deficit) to 2 (severe deficit) for a maximum combined score of 12. Neurological scoring was performed in a blinded fashion. Values are expressed as means±SEM for the indicated number of animals or number of in vitro experiments. The statistical significance of differences between means was calculated by one-way ANOVA with post-hoc Fisher test or Dunnett's comparison to control or with Student's t-test analysis, as appropriate. Linear mix model was used to assess differences between treatment groups during 3-week neurological function recovery testing post-pMCAO. Statistical significance was assumed at p<0.05. A further efficacy study was conducted and employed a less severe permanent MCAO (pMCAO) model. This model, which utilized an occlusion of the distal portion of the middle cerebral artery, produced a much smaller injury contained within the sensorimotor cortex of the animal. The injury sustained in this model was less extensive but still involves the motor cortex and the rats can be assessed over the long-term (3 weeks to 3 months post-ischemia) for neurological function. In a first study with this model, rats were administered an IV bolus dose of 1, 3 or 10 mg/kg initiated at 4 hours post-ischemia and followed by 2 subsequent and equivalent doses at 7 and 10 hours. In a second study, rats were given a single IV bolus followed by a 24 hr IV infusion. Neurological function was tested every 2-3 days for 3 weeks post-MCAO.

[1] = test system: Wistar rats, 90 min tMCAO; test: Transient middle cerebral artery occlusion (tMCAO) model; details: tMCAO rat
Method: (§1) Adult male Wistar rats (Charles River, Wilmington, Mass.) 290-310 g were used in all studies. Animal procedures were approved by the Institutional Animal Care and Use Committee and conducted in accordance with the guidelines of the National Institutes of Health.
(§2) Rats were anesthetized with 3% isoflurane in a mixture of 70% nitrous oxide and 30% oxygen through a nose cone. Core body temperature was maintained at 37° C. throughout the surgery using a heating lamp. tMCAO was induced for 90 min using the intraluminal suture method (Longa et al., Reversible middle cerebral artery occlusion without craniectomy in rats. Stroke 20:84-91, 1989). Briefly, an 18 mm length of 4-0 monofilament nylon suture coated with poly-L-lysine (Belayev et al., 1996) with a flame-rounded tip was inserted into the external carotid artery and advanced into the internal carotid to occlude the origin of the MCA Ninety minutes later rats were re-anesthetized, the suture withdrawn and the incision closed. Drug (test compound) or vehicle, were administered into the tail vein as a 3 IV bolus doses 3 hours apart in a volume of 2 ml/kg starting at 4 hours post-induction of stroke at various time intervals after the induction of stroke. Animals were tested for motor deficits using a scoring system described by (Bederson et al., 1986). A Bederson score of 5 (maximum) at 90 minutes post-induction of tMCAO was a criterion for inclusion in the trial. Motor deficits and body weight were monitored at 24 and 48 hours post-tMCAO. Neurological deficits were assessed by blinded operators. Rats were sacrificed at 48 hours post-tMCAO. Sham-operated controls were subjected to identical surgical procedures but without advancement of the monofilament into the MCA branching point. The same model was also used, but in addition to occlusion of middle cerebral arteries, both carotid arteries were occluded (CCAO) for the same time 90 minutes. This was Severe Transient MCAO.
(§3) After sacrifice, brains were extracted and 2 mm coronal sections were cut starting at 4 mm from the frontal pole using a rat brain matrix (Stoeling, Wood Dale, Ill.). Sections were stained by immersion in a 2% solution of 2,3,5-triphenyl tetrazolium chloride at 37° C. for 10 minutes and then in 10% neutral formalin for preservation. Digitized images of sections were collected using the MCID image analysis system (Imaging Research, Inc. Ontario, Canada), and the area of infarct determined for each slice. Total infarct volume was calculated by multiplying a sum of areas by the distance between them in mm.
Values are expressed as means±SEM for the indicated number of animals or number of in vitro experiments. The statistical significance of differences between means was calculated by one-way ANOVA with post-hoc Fisher test or Dunnett's comparison to control or with Student's t-test analysis, as appropriate. Linear mix model was used to assess differences between treatment groups during 3-week neurological function recovery testing post-pMCAO. Statistical significance was assumed at p<0.05.
The first study was conducted using a transient middle cerebral artery occlusion (tMCAO) model. Rats were subjected to 90 minutes tMCAO and compound (2-dimethylaminomethyl-9-hydroxythieno[2,3-c]isoquinolin-5(4H)-one) was administered using 3 bolus injections at 4, 7 and 10 hours post-ischemia and an intraperitoneal (IP) route of administration. The three doses evaluated were 0.1, 1 and 10 mg/kg. Dosing was initiated at 4 hours post-MCAO because it is a clinically relevant therapeutic time window to treatment. Infarct volumes and neurological testing were carried out at 48 hours post-ischemia. This model produces an extensive unilateral lesion that involves the motor cortex and striatum. It is used to assess acute neuroprotection and neurological function in a reperfusion model of stroke. […]

[2] = test system: Wistar rats, severe tMCAO; test: Severe tMCAO model (MCA and both carotid arteries temporarily occluded); details: severe tMCAO rat, 48 hours
Method: as §1
as §2, with “Sham-operated controls were subjected to identical surgical procedures but without advancement of the monofilament into the MCA branching point. The same model was also used, but in addition to occlusion of middle cerebral arteries, both carotid arteries were occluded (CCAO) for the same time 90 minutes. This was Severe Transient MCAO.” left out
as §3, with “Sections were stained by immersion in a 2% solution of 2,3,5-triphenyl tetrazolium chloride at 37° C. for 10 minutes and then in 10% neutral formalin for preservation.” left out
Values are expressed as means±SEM for the indicated number of animals or number of in vitro experiments. The statistical significance of differences between means was calculated by one-way ANOVA with post-hoc Fisher test or Dunnett's comparison to control or with Student's t-test analysis, as appropriate. […]
In a third assay, a severe tMCAO model was used (where both MCAO and carotid arteries were temporarily occluded) to obtain an injury. […] Doses of 1 or 10 mg/kg of 2-dimethylaminomethyl-9-hydroxythieno[2,3-c]isoquinolin-5(4H)-one were given at 4, 7 and 10 hours and animals were evaluated for infarct size, weight loss and neurological score at 48 hours post-MCAO.

[3] = test system: Wistar rats, severe permanent MCAO; test: Severe permanent MCAO model (intraluminal suture not removed); details: severe permanent MCAO rat, 3×1 mg/kg IP from 30 minutes post-ischemia, 24 hours
[4] = 11.7 mg/kg IV bolus then 0.9 mg/hr infusion for 24 hours

SMILES: CN(C)Cc1cc2c([nH]c(=O)c3cccc(O)c32)s1 [2-dimethylaminomethyl-9-hydroxythieno[2,3-c]isoquinolin-5(4H)-one]
- time for which neurological recovery was maintained following ischemia (Wistar rats, pMCAO; 3.5 mg/kg IV bolus plus 2.5 mg/hr IV infusion for 24 hours): at least 3 months
- neurological deficits (Wistar rats, pMCAO; 3.5 mg/kg IV bolus plus 2.5 mg/hr IV infusion for 24 hours, 39 days post-ischemia): significantly reduced neurological deficits
- neurological function, 10 mg/kg dose (Wistar rats, pMCAO; multiple IV bolus 10 mg/kg, 21 days post-ischemia): approached efficacy
- neurological function (Wistar rats, pMCAO; multiple IV bolus 1, 3 or 10 mg/kg at 4, 7 and 10 hours, 21 days post-ischemia): no significant improvement in neurological function
- neurological deficits ([1]; 1 mg/kg IP ×3, 48 hr post-MCAO): significantly reduced neurological deficits
- effect on neurological deficits, weight loss and infarct volume ([1]; 3.9 mg/kg IV bolus then 0.3 mg/hr infusion for 24 hours (lower dose)): No effect was seen
- ischemic-induced weight loss [1, 4]: significant reduction in ischemic-induced weight loss
- reduction in infarct volume (small but insignificant) [1, 4]: 10%
- neurological deficits ([1]; 11.7 mg/kg IV bolus then 0.9 mg/hr infusion for 24 hours from 4 hours post-tMCAO, 48 hours): significant reduction in neurological deficits
- reduction of infarct volume vs vehicle ([1]; 3×0.1 mg/kg IP at 4, 7 and 10 hours post-ischemia, 48 hours): 20%
- reduction of infarct volume vs vehicle ([1]; 3×1 mg/kg IP at 4, 7 and 10 hours post-ischemia, 48 hours): 55%
- reduction of infarct volume vs vehicle ([1]; 3×10 mg/kg IP at 4, 7 and 10 hours post-ischemia, 48 hours): 66%
- infarct volume smaller than vehicle ([2]; 3 times 1 mg/kg IV bolus at 4, 7 and 10 hours): 22%
- infarct volume smaller than vehicle ([2]; 3 times 10 mg/kg IV bolus at 4, 7 and 10 hours): 19%
- ischemia-induced weight loss ([2]; 3 times 1 or 10 mg/kg IV bolus): reduction of ischemia-induced weight loss
- neurological deficits ([2]; 3 times 1 or 10 mg/kg IV bolus): reduction of neurological deficits
- infarct volume smaller than vehicle [3]: 42%
